Source: ChEMBL document CHEMBL3352480, “Antiproliferative glabretal-type triterpenoids from the root bark of Dictamnus dasycarpus” (Bioorg Med Chem Lett, 2015)

What was measured:
[1] = Cytotoxicity against OT-2 T cell receptor transgenic mouse splenocytes using propidium iodide by flow cytometry; assay type: cell-based; settings: splenocyte
[2] = Effect on IL-2 secretion in OVA323-339 peptide-stimulated OT-2 T cell receptor transgenic mouse T cells after 3 days by sandwich ELISA; assay type: cell-based; settings: splenocyte, 72 h
[3] = Immunosupressive activity in OVA323-339 peptide-stimulated OT-2 T cell receptor transgenic mouse splenocytes assessed as inhibition of T cell proliferation after 3 days by MTT assay; assay type: functional, cell-based; settings: Splenocyte, 72 h
[4] = Effect on IFN-gamma secretion in OVA323-339 peptide-stimulated OT-2 T cell receptor transgenic mouse T cells after 3 days by sandwich ELISA; assay type: cell-based; settings: splenocyte, 72 h

| SMILES | Activity [1] | Activity [2] | IC50 [3] [nM] | Activity [4] |
| --- | --- | --- | --- | --- |
| CCCCCCCCCC(=O)O[C@@H]1CC[C@]2(C)[C@H]3CC[C@]45C[C@]4(CC[C@H]5[C@@H]4C[C@H]([C@@H]5O[C@]5(C)CO)OC4O)[C@]3(C)[C@H](O)C[C@H]2C1(C)C (stereo partly specified) | Non-toxic | Non-toxic | 1800 | Non-toxic |
| CCC(C)CCCCCCC(=O)O[C@@H]1CC[C@]2(C)[C@H]3CC[C@]45C[C@]4(CC[C@H]5[C@@H]4C[C@H]([C@@H]5O[C@]5(C)CO)OC4O)[C@]3(C)[C@H](O)C[C@H]2C1(C)C (stereo partly specified) | Non-toxic | Non-toxic | 1500 | Non-toxic |
| CC(C)CC(=O)O[C@@H]1CC[C@]2(C)[C@H]3CC[C@]45C[C@]4(CC[C@H]5[C@@H]4C[C@H]([C@H](O)C(C)(C)O)OC4O)[C@]3(C)[C@H](O)C[C@H]2C1(C)C (stereo partly specified) | Non-toxic | Non-toxic | > 20000 | Non-toxic |
| CC(C)CC(=O)O[C@@H]1CC[C@]2(C)[C@H]3CC[C@]45C[C@]4(CC[C@H]5[C@@H]4C[C@H]([C@@H]5O[C@]5(C)CO)OC4O)[C@]3(C)[C@H](O)C[C@H]2C1(C)C (stereo partly specified) | Non-toxic | Non-toxic | 1500 | Non-toxic |
